# Data published in patent publication US7737256B2, “Antibody against uPA/uPAR” (Fondazione Centro San Raffaele Del Monte Tabor, priority 2001, dated 2010).
# Legend:
# THP-1 cells = experiment: chemotaxis of THP-1 cells (modified Boyden chambers); type: cell-based, human
# Experimental: (§1) Chemotaxis assays were performed as described (Degryse, 1999) with modified Boyden chambers using filters (5 μm pore size, Corning) treated with collagen I (100 μg/ml) and fibronectin (10 μg/ml, Boehringer Mannheim). 20,000-40,000 cells in serum-free DMEM were added to the upper well while the chemoattractants were added to the lower well. When present, antibodies or desensitizing molecules were pre-incubated with the cells for one hour and were then added to both wells of Boyden chambers during the chemotaxis assay. Migration lasted for […] in the case of THP-1 cells and 4-6 hours for the HEK293 or HEK293/FPRL1 cells. After migration at 37° C., cells remaining on the upper surface of filters were scraped off, the filters were fixed in methanol and stained in a solution of 10% (w/v) crystal violet in 20% (v/v) methanol. The experiments were performed in triplicate and the results presented represent the mean ±SD of the number of cells counted in ten high power fields per filter and are representative of at least three experiments. Random cell migration, i. e. migration in the absence of chemoattractant, was given the arbitrary value of 100%.
# HEK293 cells = experiment: chemotaxis of HEK293 cells; type: cell-based, human; details: untransfected HEK293, FIG. 10
# Experimental: (§2) The THP-1 cells used in the present example have been previously described (Resnati, 1996). Human HEK293 cells were kindly donated by Dr. Hal Chapman and human HEK293/FPRL1 from Dr. J. M. Wang. […] HEK293/FPRL1 cells have been generated by transfection of FPRL1 cDNA in HEK293 cells (Murphy, 1996).
# as §1, with “Random cell migration, i. e. migration in the absence of chemoattractant, was given the arbitrary value of 100%.” left out
# HIV-1 in U1 cells = experiment: PMA-induced HIV-1 reactivation in U1 cells (RT activity); type: cell-based
# Experimental: Cell Lines p U1 cells were stimulated at the density of 2×10^5 cells per ml in RPMI 1640 (Whittaker M. A. Bioproducts, Walkerville, Md.) containing 10% FCS. Cells were preincubated with uPA, uPAR, suPA, R2, R3, R4, R5 antibodies for 20 min at 37° C. prior to addition of stimuli. U1 parental cell line U937 was used as a control in the transfection experiments. U937 cells were purchased from ATCC and maintained in RPMI 1640 medium in the presence of FCS before and after infection with the X4 HIV-1LAI/IIIB. For infection, cells were seeded at 2×10^5 cells/ml in 96-well flat bottomed plates (Falcon, Becton-Dickinson Labware, Lincoln Park, N.J.) and infected with 1−2×10^7 virus particles diluted from a stock of pelleted virus (Advanced Biotechnology, Inc., Columbia, Md.). After infection, 2 h at 37° C., cells were washed and resuspended in RPMI 1640 medium.
# Viral expression was monitored by determination of Mg^2+-dependent Reverse Trascriptase (RT) activity in culture supernatants (Poli, 1990). In particular, 5 microliters of supernatants was added to 25 microliters of a mixture containing poly(A), oligo(dT) (Pharmacia Fine Chemicals, Piscataway, N.J.), MgC12, and 32P-labeled deoxythymidine 5′-triphosphate (dTTP) (Amersham Corp., Arlington Heights, Ill.), and incubated for 2 h at 37°°C. 6 microliters of the mixture was spotted onto DE81 paper, air dried, washed five times in 2× SSC buffer, and two additional times in 95% ethanol. The paper was then dried and counted on a scintillation counter (LS 5000, Beckman Instruments, Inc., Fullerton, Calif.).
# For all experiments, culture supernatants were collected every day for five days, in the case of cell line, or every three days for infection of U937 and primary cells. Reagents were replenished every time culture medium was changed. Data representative of one out of three independent experiments are shown. Results are presented as means of triplicate cultures, and the error bar show the standard deviation from the mean.
# [1] = chemotaxis-promotion by uPAR peptides (data not shown); type: cell-based
# [2] = molecular target: FPRL1/LXA4R, seven trans-membrane G-protein-coupled receptor (human) (UniProt P25090); experiment: cell-based or functional assay
# UniProt P25090, sequence (P25090 whole entry): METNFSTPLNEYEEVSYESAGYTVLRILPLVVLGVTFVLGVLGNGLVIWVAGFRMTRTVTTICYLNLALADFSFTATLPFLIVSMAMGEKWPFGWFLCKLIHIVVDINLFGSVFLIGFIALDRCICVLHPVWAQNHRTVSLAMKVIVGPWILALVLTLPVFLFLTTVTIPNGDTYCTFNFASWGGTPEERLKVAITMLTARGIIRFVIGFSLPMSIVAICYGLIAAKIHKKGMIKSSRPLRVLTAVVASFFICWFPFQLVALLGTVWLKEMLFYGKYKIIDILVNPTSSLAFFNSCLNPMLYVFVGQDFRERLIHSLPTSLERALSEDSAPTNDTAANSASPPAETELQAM
# [3] = system: Human peripheral blood monocytes; experiment: chemotaxis of peripheral blood monocytes; type: cell-based; details: fresh human monocytes, FIG. 13
# Experimental: as §1
# THP-1 cells have been described before (Resnati, 1996). […] The purity of the separated populations was determined by flow cytometry analyses with anti-CD14 monoclonal antibodies.
# HEK293/FPRL1 cells = experiment: chemotaxis of HEK293 transfected with FPRL1/LXA4R; type: cell-based, human; details: FIG. 10
# Experimental: as §2
# as §1, with “Random cell migration, i. e. migration in the absence of chemoattractant, was given the arbitrary value of 100%.” left out
compound,measurement,setting,value
"CSCC[C@H](NC=O)C(=O)N[C@@H](CC(C)C)C(=O)N[C@@H](Cc1ccccc1)C(=O)O [fMLP, formyl-methionyl-leucyl-phenylalanine]",de-sensitization against D2D388-279 and ATF,THP-1 cells; 20 μM,de-sensitized
same,effect on MCP-1 chemotaxis (de-sensitization),"THP-1 cells; THP-1 cells, FIG. 9B",did not affect
same,IC50,"THP-1 cells; THP-1 cells, FIG. 9B, read-out: concentration inhibiting D2D388-279 chemotaxis by 50% (de-sensitization)",10 to 20 µM
same,effect on MCP-1 chemotaxis (de-sensitization),"THP-1 cells; THP-1 cells, very high concentrations (200 μM)",marginally
ATF: amino terminal fragment of uPA with full receptor-binding and no enzymatic activity,chemotactic response of the cells,HEK293 cells,do not respond
same,effect on PMA-induced HIV-1 expression,"HIV-1 in U1 cells; PMA 10 nM, FIG. 2",fully reproduces the pro-uPA effect
same,induction of chemotaxis,THP-1 cells; THP-1 cells,induce chemotaxis
AVTYSRSRYLEC (listed as Homo sapiens),chemotaxis-promotion,[1],active
same,chemotaxis-promotion after cleavage with plasmin,"[1]; peptide cleaved with plasmin, data not shown",destroyed the activity
"D2D388-278, D2D3 fragment obtained by cleavage of suPAR with chymotrypsin (from UniProt Q03405 110-300) (receptor)",chemotaxis of HEK293 cells transfected with FPRL1/LXA4R,[2],0.1 nM
"D2D388-279: chymotrypsin-cleaved, soluble, purified form of uPAR endowed with potent chemotactic activity",chemotactic response of the cells,HEK293 cells,do not respond
same,induction of chemotaxis,[3],induce chemotaxis
same,chemotactic response of the cells,HEK293/FPRL1 cells,respond well
same,concentration of maximum chemotactic response,HEK293/FPRL1 cells,about 0.1 nM
MCP-1: monocytes chemotactic protein-1 [reference compound],induction of chemotaxis,[3],induce chemotaxis
same,induction of chemotaxis,THP-1 cells; THP-1 cells,induce chemotaxis
SRSRY (listed as Homo sapiens),chemotaxis-promotion,[1],active
TGF-β [reference compound],inhibition of PMA-induced HIV-1 replication/expression,"HIV-1 in U1 cells; pro-uPA 10 nM, TGF-beta 5 ng/ml, alone or combined, FIG. 4C",60%
suPAR: recombinant soluble uPAR which specifically binds pro-uPA,effect on the inhibition of PMA-induced HIV-1 expression by pro-uPA,"HIV-1 in U1 cells; with pro-uPA, FIG. 2D, FIG. 3",blocked
